Key:
PBMCs = assay: XTT cytotoxicity test on PBMCs; assay type: cell-based; conditions: Homo sapiens, PBMC, 72 h (ESI: 96 h), viability, mean ± SD, read-out: Relative IC50 PBMCs (XTT)
Procedure: (§1) Table 3 presents the IC50 values obtained from the XTT test on PBMCs and the T-Jurkat cell line, using MPA and MMF as standards. These values indicate the concentration of each compound required to reduce the viability of PBMCs (healthy cells) and T-Jurkat cells (T-cell leukemia) by 50% compared to the control. Cells were treated with compounds for 72 h (PBMCs) or 48 h (T-Jurkat), followed by a colorimetric XTT test. The results are illustrated in ESI Fig. S2 as a viability curve in relation to concentration.
Biological evaluation — PBMC and T-Jurkat cells […]
(§2) Human peripheral blood mononuclear cells (PBMCs) were isolated from buffy coats provided by anonymous, healthy volunteers with an average age of 35±4 years during routine transfusion procedure. These samples were received by the Authors from the Regional Centre for Blood Donation and Treatment in Gdańsk (Poland). […]
(§3) solely for PBMCs isolation. PBMCs were suspended in a complete X-VIVO medium, consisting of X-VIVO20, 10% heat-inactivated human AB serum, penicillin (100 U/ml), and streptomycin ([…]).
(§4) MPA derivatives preparation
(§5) To achieve the desired concentrations of the tested compounds, the substances were first dissolved in DMSO to reach a final concentration of 0.01 M. The solutions were then diluted in the appropriate additive-free medium (RPMI-1640 for T-Jurkat cells and X-VIVO20 for PBMCs) to obtain […]
(§6) Peripheral blood mononuclear cells were isolated by gradient centrifugation, as described previously. Buffy coats were diluted with phosphate-buffered saline (PBS, pH = 7.4, ThermoFisher Scientific) in a 1:1 ratio, layered at Ficoll-Paque™ PLUS (VWR International), and centrifuged at 800 × g for 20 minutes. The PBMC layer was collected and washed twice with PBS (1st wash: 600 × g for 10 minutes; 2nd wash: 600 × g for 5 minutes). Cell amount and viability were assessed using the Bio-Rad TC20™ automated cell counter combined with trypan blue staining.
(§7) XTT dye-based in vitro cytotoxicity test
(§8) The cytotoxic effects of mycophenolic acid (MPA) derivatives were assessed using an in vitro XTT-based assay (Roche). PBMCs in complete X-VIVO20 medium and T-Jurkat cells in complete RPMI-1640 medium were seeded into 96-well plates at a concentration of 5∙10^5 cells/50 µl per well. 50 µl of tested compounds were added to the experimental wells to achieve final concentrations of 50, 25, 10, 5, 1, 0.1, and 0.01 µM. The background control consisted of the medium without cells, while untreated cells served as the positive control. After incubating for 48 hours for T-Jurkat cells and 96 hours for PBMCs in a humidified atmosphere with 5% CO2 at 37°C, 50 µl of freshly prepared XTT reagent was added to all wells according to the manufacturer's instructions. The plates were then incubated for an additional 24 hours under the same conditions. The conversion of the water-soluble yellow XTT tetrazolium salt to orange formazan was quantified by measuring the optical density (OD) at 450 nm using an Agilent BioTek Epoch Microplate Spectrophotometer (Agilent Technologies), with a reference wavelength of 690 nm. The results were expressed as IC50 values for compounds that […]
(§9) inhibited cell viability by more than 50%. […]
PBMCs were suspended in a 15 mL centrifuge tube at a concentration of 10-30 × 10⁶ cells in 1 mL of PBS, then, 2 μL of 1 mM VPD 450 dye solution was added, incubated for 15 min at 37°C, washed with a 9-fold volume of warm PBS and centrifuged at 400 x g for 5 min. Then, the cells were suspended in 10 mL of X-VIVO medium with 10% FBS and centrifuged again at 400 x g for 5 min. After suspending the cells in the complete medium, the staining level was checked using flow cytometry. The cells thus obtained were stimulated with anti-CD3/anti-CD28 antibodies as described previously (see VPD450 dye-based in vitro cell proliferation test). To perform the GMP test, a proper amount of GMP was added to each well to reach its final concentration of 50 μM, and then incubated for 72 hours. Proliferative […]

T-Jurkat cells = assay: XTT cytotoxicity test on T-Jurkat cell line; assay type: cell-based, human; conditions: for IC50: Homo sapiens, T-Jurkat, 48 h, viability, mean ± SD, read-out: Relative IC50 T-Jurkat (XTT); for IS internal selectivity (IC50 PBMCs / IC50 T-Jurkat): ratio between XTT IC50 values for PBMCs and T-Jurkat cell line
Procedure: as §1
Biological evaluation — PBMC and T-Jurkat cells
The T-Jurkat cell line (Clone E6-1, ATCC TIB-152), derived from a human acute T-cell leukemia, was obtained from the cell bank of the Department of Medical Immunology at the Medical University of Gdańsk. Before experimentation, the cells were thawed and cultured for about 7 days to reach the logarithmic phase of growth. The T-Jurkat cell line was suspended in a complete RPMI medium, which included RPMI-1640, 10% FBS, penicillin (100 U/ml), and streptomycin ([…]).
as §2, §3, §4, §5, §6, §7, §8, §9
PBMCs were suspended in a 15 mL centrifuge tube at a concentration of 10-30 × 10⁶ cells in 1 mL of PBS, then, 2 μL of 1 mM VPD 450 dye solution was added, incubated for 15 min at 37°C, washed with a 9-fold volume of warm PBS and centrifuged at 400 x g for 5 min. Then, the cells were suspended […]

[1] = DPPH radical scavenging test (colorimetric); conditions: concentration scavenging 50% of DPPH radicals; 10 min, room temperature, 517 nm; mean ± SD
Procedure: Antioxidative properties of the obtained MPA derivatives were assessed chemically using a colorimetric DPPH test. The IC50 value represents the scavenging activity, defined as the concentration of a compound required to scavenge 50% of DPPH radicals.
Briefly, 400 µL solution of each synthesized compound with different concentrations (20–1000 µg/mL) was added to 1.6 mL DPPH solution (100 µmol/L). After shaking, the mixture was incubated at room temperature in the dark for 10 min, and then the absorbance was measured at 517 nm. The %Scavenging activity was calculated by using the formula: […]
The scavenging activity was expressed as IC50 value, defined as the concentration (mM) of compound required for scavenging DPPH radicals by 50%. IC50 values were determined by linear regression analysis using at least three different concentrations in duplicate.
Three different concentrations were prepared for each sample, while each one was analyzed in duplicate. […] The statistical analysis was performed using Tukey’s HSD test (p < 0.05). The statistical software Statistica 10 software (StatSoft Inc., Tulsa, OK, USA) was implemented for this analysis.

IC50 [1] [mM]	SMILES	IC50 (PBMCs) [µM]	IC50 (T-Jurkat cells) [nM]	IS internal selectivity (IC50 PBMCs / IC50 T-Jurkat) (T-Jurkat cells)
23.8 ± 0.411	COc1ccccc1OC(=O)CC/C(C)=C/Cc1c(O)c2c(c(C)c1OC)COC2=O [MP1]	14.78 ± 0.016	982 ± 5	15.051
3.72 ± 0.23	COc1cccc(OC)c1OC(=O)CC/C(C)=C/Cc1c(O)c2c(c(C)c1OC)COC2=O [MP2]	22.52 ± 0.039	1748 ± 6	12.883
12.2 ± 0.252	COc1cc(C=O)cc(OC)c1OC(=O)CC/C(C)=C/Cc1c(O)c2c(c(C)c1OC)COC2=O [MP3]	10.59 ± 0.04	4443 ± 7	2.383
6.4 ± 0.311	COc1cc(C=O)ccc1OC(=O)CC/C(C)=C/Cc1c(O)c2c(c(C)c1OC)COC2=O [MP4]	23.484 ± 0.015	5330 ± 5	4.406
3.64 ± 0.113	COC(=O)/C=C/c1ccc(OC(=O)CC/C(C)=C/Cc2c(O)c3c(c(C)c2OC)COC3=O)c(OC)c1 [MP7]	30.43 ± 0.044	1406 ± 4	21.645
6.9 ± 0.225	C=CCc1ccc(OC(=O)CC/C(C)=C/Cc2c(O)c3c(c(C)c2OC)COC3=O)c(OC)c1 [MP8]	17.782 ± 0.011	1705 ± 2	10.429
0.373 ± 0.041	C/C=C/c1ccc(OC(=O)CC/C(C)=C/Cc2c(O)c3c(c(C)c2OC)COC3=O)c(OC)c1 [MP9]	21.153 ± 0.015	1964 ± 2	10.770

Second part, the compound before the results:

SMILES	IC50 [1] [mM]	IC50 (PBMCs) [µM]	IC50 (T-Jurkat cells) [nM]	IS internal selectivity (IC50 PBMCs / IC50 T-Jurkat) (T-Jurkat cells)
COc1c(C)c2c(c(O)c1C/C=C(\C)CCC(=O)OCCN1CCOCC1)C(=O)OC2 [MMF, mycophenolate mofetil, reference compound]	19 ± 0.279	16.61 ± 0.041	740 ± 34	22.456
COc1c(C)c2c(c(O)c1C/C=C(\C)CCC(=O)O)C(=O)OC2 [MPA, Mycophenolic acid]	15.73 ± 0.144	18.73 ± 0.03	527 ± 40	35.558
COc1c(C)c2c(c(O)c1C/C=C(\C)CCC(=O)Oc1ccc3c(c1)OCO3)C(=O)OC2 [P1]	43.57 ± 0.38	125.48 ± 0.025	1073 ± 2	116.938
COc1c(C)c2c(c(O)c1C/C=C(\C)CCC(=O)Oc1cc(C)ccc1C(C)C)C(=O)OC2 [P2]	11.67 ± 0.113	16.349 ± 0.01	2473 ± 4	6.611
COC(=O)/C=C/c1ccccc1OC(=O)CC/C(C)=C/Cc1c(O)c2c(c(C)c1OC)COC2=O [P4]	0.308 ± 0.031	25.887 ± 0.017	1658 ± 3	15.613
COc1c(C)c2c(c(O)c1C/C=C(\C)CCC(=O)Oc1ccc(C=O)cc1)C(=O)OC2 [P5]	28.2 ± 0.357	9.948 ± 0.046	1582 ± 3	6.288
COc1c(C)c2c(c(O)c1C/C=C(\C)CCC(=O)Oc1ccc(CCC(C)=O)cc1)C(=O)OC2 [P7]	0.124	50.294 ± 0.019	2410 ± 2	20.869
